Reference: patent publication US11707477B2, “Formulation comprising a gemcitabine-prodrug” (NuCana plc, priority 2014, dated 2023)
“And” between values parts separate entries of the source, which are not always exact repeats. Equal values may be shown once.

Columns and labels:
[1] = Preferred formulation system: stability; type: physicochemical
Description: The final administration formulation is then prepared by diluting this second formulation to the desired concentration with saline.

[2] = Solubility in a range of solvents on dilution; type: physicochemical
Description: The protocol adopted was as follows:
A small volume, 1-2 mL, of each solvent system was prepared and a weight of the compound in question was added. The solutions were stirred for approximately 4 hours and then […] membrane filtered. The concentration of the compound in question in the filtrate was then determined by HPLC assay.

[3] = Effect of aqueous dilution on DMA solubility and physical stability; type: physicochemical
Text: Table 2 gives the effect of aqueous dilution on DMA solubility

[4] = Solubility in water; type: physicochemical; details: regardless of salt content or pH
[5] = Clinical testing of 80:20 DMA:0.9% saline formulation; type: in vivo
[6] = DMA 45.8 mg/mL, 1:3 with 0.9% saline containing […] Tween 80
[7] = DMA 45.8 mg/mL, 1:4.5 with 0.9% saline containing […] Tween 80
[8] = DMA 55.0 mg/mL, 1:3 with 0.9% saline containing […] Tween 80
[9] = DMA 73.3 mg/mL, 1:3 with 0.9% saline containing […] Tween 80
[10] = DMA […] mg/mL, Solvent:Saline (0.9%) 1:3
[11] = PEG 400 87.7 mg/mL, 1:1 glucose
[12] = PEG 400 87.7 mg/mL, 1:2 glucose
[13] = PEG 400, 45.6 mg/mL, 1:1.5 with 0.9% saline containing […] Tween 80
[14] = PEG 400, 45.6 mg/mL, 1:2 with 0.9% saline containing […] Tween 80
[15] = PEG 400, 45.6 mg/mL, 1:2.5 with 0.9% saline containing […] Tween 80
[16] = PEG 400, 91.2 mg/mL, 1:2 with 0.9% saline containing […] Tween 80
[17] = PEG 400, 91.2 mg/mL, Solvent:Saline (0.9%) 1:1
[18] = PEG 400, 91.2 mg/mL, Solvent:Saline (0.9%) 1:2

Structure (SMILES): C[C@H](NP(=O)(OC[C@H]1O[C@@H](n2ccc(N)nc2=O)C(F)(F)C1O)Oc1ccccc1)C(=O)OCc1ccccc1 (stereo partly drawn) [NUC-1031, 2′-Deoxy-2′,2′-difluoro-D-cytidine-5′-O-[phenyl (benzoxy-L-alaninyl)]phosphate]
- stability for storage and transport ([1]; 250 mg/mL in 80:20 (by volume) DMA:0.9% saline): sufficiently stable for long term storage and transport
- osmolarity ([1]; 4, 8 and 10 mg/mL in 0.45% and 0.9% saline): acceptable for peripheral administration
- time stable to precipitation and to degradation after dilution ([1]; 4, 8 and 10 mg/mL, 0.45% and 0.9% saline, pH 4.5, 6.0 and 7.0, not stirred): 48 h
- Appearance [2, 6]: Clear
- NUC-1031 mg/mL HPLC assay filtrate [2, 6]: 11.5 mg/mL
- Appearance ([2]; DMA 45.8 mg/mL, 1:3.5 with 0.9% saline containing […] Tween 80): Clear
- NUC-1031 mg/mL HPLC assay filtrate ([2]; DMA 45.8 mg/mL, 1:4 with 0.9% saline containing […] Tween 80): 8.4 mg/mL
- Appearance ([2]; DMA 45.8 mg/mL, 1:4 with 0.9% saline containing […] Tween 80 (precipitates >30 min, stirring precipitate dissolves)): Initially clear
- Appearance [2, 7]: Slightly turbid
- NUC-1031 mg/mL HPLC assay filtrate [2, 7]: 7.2 mg/mL
- Appearance [2, 8]: Slightly turbid
- NUC-1031 mg/mL HPLC assay filtrate [2, 8]: 13.9 mg/mL
- Appearance [2, 9]: Precipitation
- NUC-1031 mg/mL HPLC assay filtrate [2, 9]: 14.7 mg/mL
- Appearance ([2]; DMA 92.5 mg/mL, 1:1 glucose): Clear
- Evidence of further precipitation on storage of filtrate at RT >24 h ([2]; DMA 92.5 mg/mL, 1:1 glucose): No
- NUC-1031 mg/mL HPLC assay filtrate ([2]; DMA 92.5 mg/mL, 1:1 glucose): 47.3 mg/mL
- Appearance ([2]; DMA 92.5 mg/mL, 1:2 glucose): Slightly turbid
- Evidence of further precipitation on storage of filtrate at RT >24 h ([2]; DMA 92.5 mg/mL, 1:2 glucose): Yes
- NUC-1031 mg/mL HPLC assay filtrate ([2]; DMA 92.5 mg/mL, 1:2 glucose): 29.7 mg/mL
- Appearance [2, 10]: Precipitation
- NUC-1031 mg/mL HPLC assay filtrate [2, 10]: 14.8 mg/mL
- NUC-1031 mg/mL HPLC assay filtrate ([2]; DMA […], 1:2 with 0.9% saline containing […] Tween 80): 30.9 mg/mL
- NUC-1031 mg/mL HPLC assay filtrate ([2]; DMA […], 1:3 with 0.9% saline containing […] Tween 80): 15.2 mg/mL
- NUC-1031 mg/mL HPLC assay filtrate ([2]; DMA […], Solvent:Saline (0.9%) 1:1): 47.0 mg/mL
- NUC-1031 mg/mL HPLC assay filtrate ([2]; DMA […], Solvent:Saline (0.9%) 1:2): 30.2 mg/mL
- Appearance ([2]; NMP 115.0 mg/mL, 1:1 glucose): Slightly turbid
- Evidence of further precipitation on storage of filtrate at RT >24 h ([2]; NMP 115.0 mg/mL, 1:1 glucose): No
- NUC-1031 mg/mL HPLC assay filtrate ([2]; NMP 115.0 mg/mL, 1:1 glucose): 58.5 mg/mL
- Appearance ([2]; NMP 115.0 mg/mL, 1:1 saline): Slightly turbid
- Evidence of further precipitation on storage of filtrate at RT >24 h ([2]; NMP 115.0 mg/mL, 1:1 saline): No
- NUC-1031 mg/mL HPLC assay filtrate ([2]; NMP 115.0 mg/mL, 1:1 saline): 60.0 mg/mL
- Appearance ([2]; NMP 115.0 mg/mL, 1:2 glucose): Slightly turbid
- Evidence of further precipitation on storage of filtrate at RT >24 h ([2]; NMP 115.0 mg/mL, 1:2 glucose): Yes
- NUC-1031 mg/mL HPLC assay filtrate ([2]; NMP 115.0 mg/mL, 1:2 glucose): 39.6 mg/mL
- Appearance ([2]; NMP 115.0 mg/mL, 1:2 saline): Slightly turbid
- Evidence of further precipitation on storage of filtrate at RT >24 h ([2]; NMP 115.0 mg/mL, 1:2 saline): Yes
- NUC-1031 mg/mL HPLC assay filtrate ([2]; NMP 115.0 mg/mL, 1:2 saline): 40.5 mg/mL
- evidence of precipitation after dilution ([2]; NMP and DMA solutions, dilution 1:1 with water or saline): did not show any evidence of precipitation
- Appearance [2, 11]: Slightly turbid
- Evidence of further precipitation on storage of filtrate at RT >24 h [2, 11]: Yes
- NUC-1031 mg/mL HPLC assay filtrate [2, 11]: 46.1 mg/mL
- Appearance [2, 12]: Turbid
- Evidence of further precipitation on storage of filtrate at RT >24 h [2, 12]: No
- NUC-1031 mg/mL HPLC assay filtrate [2, 12]: 17.4 mg/mL
- Appearance [2, 13]: Clear
- Evidence of further precipitation on storage of filtrate at RT >24 h [2, 13]: Yes
- Appearance [2, 14]: Clear
- Evidence of further precipitation on storage of filtrate at RT >24 h [2, 14]: Yes
- Appearance [2, 15]: Precipitation,
- Evidence of further precipitation on storage of filtrate at RT >24 h [2, 15]: Yes
- NUC-1031 mg/mL HPLC assay filtrate [2, 15]: 10.5 mg/mL
- Appearance [2, 16]: Slightly turbid
- Evidence of further precipitation on storage of filtrate at RT >24 h [2, 16]: Yes
- NUC-1031 mg/mL HPLC assay filtrate [2, 16]: 18.8 mg/mL
- Appearance [2, 17]: Clear
- Evidence of further precipitation on storage of filtrate at RT >24 h [2, 17]: Yes
- Appearance [2, 18]: Precipitation
- Evidence of further precipitation on storage of filtrate at RT >24 h [2, 18]: Yes
- NUC-1031 mg/mL HPLC assay filtrate [2, 18]: 16.2 mg/mL
- Assay ([3]; 50:50 DMA:0.9% Saline): 66 mg/mL
- Precipitation > 24 hours ([3]; 50:50 DMA:0.9% Saline): Yes
- Assay ([3]; 60:40 DMA:0.9% Saline): 293 mg/mL
- Precipitation > 24 hours ([3]; 60:40 DMA:0.9% Saline): Yes
- Assay ([3]; 70:30 DMA:0.9% Saline): 339 mg/mL
- Precipitation > 24 hours ([3]; 70:30 DMA:0.9% Saline): Yes
- Precipitation (2 weeks) ([3]; 80:20 DMA in 0.9% Saline, assay 270 mg/ml): Yes
- Precipitation (2 weeks) ([3]; 80:20 DMA in 0.9% Saline, assay 272 mg/ml): No
- Precipitation (2 weeks) ([3]; 80:20 DMA in 0.9% Saline, assay 315 mg/ml): Yes
- Assay ([3]; 80:20 DMA:0.9% Saline): 386 mg/mL
- Precipitation > 24 hours ([3]; 80:20 DMA:0.9% Saline): Yes
- Precipitation (2 weeks) ([3]; 85:15 DMA in 0.9% Saline, assay 338 mg/ml): No
- Assay ([3]; 90:10 DMA:0.9% Saline): 483 mg/mL
- Precipitation > 24 hours ([3]; 90:10 DMA:0.9% Saline): No
- Assay ([3]; 95:5 DMA:0.9% Saline): 518 mg/mL
- Precipitation > 24 hours ([3]; 95:5 DMA:0.9% Saline): No
- Assay ([3]; 100% DMA): 592 mg/mL
- Precipitation > 24 hours ([3]; 100% DMA): No
- Assay ([3]; Table 2a, 80:20 DMA solution in 0.9% Saline): 304 mg/mL and 272 mg/mL and 315 mg/mL and 270 mg/mL
- Assay ([3]; Table 2a, 85:15 DMA solution in 0.9% Saline): 338 mg/mL
- solubility in water [4]: essentially insoluble in water
- treatment outcome in the clinical study ([5]; 250 mg NUC-1031 in 80:20 DMA:0.9% saline solution, 5 ml vial): successful treatment
- tolerability of injection ([5]; 250 mg NUC-1031 in 80:20 DMA:0.9% saline, needed to be administered by a central line): pain on injection
